The numbers were not newly measured in US11389549B2, “Diagnosis-treatment integrated nano-probe for 19F-MR/fluorescence multi-mode molecular imaging and drug-loading and preparation method and application of nano-probe” (Harbin Medical University, priority 2019, dated 2022), which cites them from elsewhere.

For the molecule `C=CC(=O)Nc1cc(Nc2nccc(-c3cn(C)c4ccccc34)n2)c(OC)cc1N(C)CCN(C)C` [AZD9291], the “solubility in organic solvents” value (DMSO and other organic solvents) was “soluble to Dimethyl Sulfoxide (DMSO) and other organic solvents merely”. For the same molecule, the solubility in water entry (water) is listed as “insoluble to water”.
